Assay results as given in US20100286145A1, “ISOPHTHALAMIDE DERIVATIVES INHIBITING BETA-SECRETASE ACTIVITY” (CoMentis, Inc., priority 2007, published 2010).

Key:
[1] = Brain pharmacokinetic analysis / brain penetration in rats, i.v. bolus; assay type: in vivo
From the text: (§1) Quantitative analysis was used to determine the concentration of a test inhibitor, N1-((2S,3R)-4-((5-(2-fluoropropan-2-yl)pyridin-3-yl)methylamino)-3-hydroxy-1-phenylbutan-2-yl)-N3-methyl-N3-((4-methylthiazol-2-yl)methyl)isophthalamide, in biological tissues. The test inhibitor was extracted from a variety of biological samples followed by its selective identification and quantification from a standard curve prepared in the same extracted biological matrix. Briefly, this extraction is accomplished through a simple protein precipitation technique performed on collected plasma. The resultant extractions are then quantified using the LC/MS protocol as detailed herein.
(§2) Quantitative analysis was performed through LC/MS analysis. The system was composed of an Eksigent Express LC 100 microflow HPLC system, coupled with an Eksigent CXP C-8AR 0.3*50 mm, or other suitable column, and a Thermo TSQuantum Classic triple quadrupole mass spectrometer running in positive ion, SRM mode. The HPLC buffers were 99.5% H2O, 0.5% formic acid (buffer A) and 99.5% acetonitrile, 0.5% formic acid (buffer B). Typically, a 10 μl aliquot was injected onto the column followed by a 1.5 minute chromatographic analysis. This analysis was conducted at a 20 μl/min flow rate, and composed of a gradient from 15% B to 90% B followed by a 98% B flush to facilitate compound separation and quantitation. Each sample was analyzed in duplicate, with QC, and system blank samples run after every sample set. The column effluent was analyzed in real time by MS/MS to allow the positive identification and quantification of the test inhibitor by compound fingerprint analysis. This was accomplished by allowing only species of 586.3 Da to pass through the first quadrupole, followed by collision induced decay in quadrupole two and scanning analysis of selected daughter ions specific to the test compound in quadrupole three. The collected data was analyzed using the LCQuan software package from Thermo Electron, to determine the levels of the test compound in the samples.
Male Sprague-Dawley Rats (200-400 g) were obtained from Taconic Farms (Hudson, N.Y.) with a pre-implanted jugular vein cannula (JVC) for blood sampling. A solution (5 mg/mL, free base equivalents) of the test inhibitor, N1-((2S,3R)-4-((5-(2-fluoropropan-2-yl)pyridin-3-yl)methylamino)-3-hydroxy-1-phenylbutan-2-yl)-N3-methyl-N3-((4-methylthiazol-2-yl)methyl)isophthalamide mono-citrate salt, was prepared freshly in 35% hydroxypropyl-β-cyclodextrin (HPBCD). Intravenous bolus injection was conducted using a 25 gauge needle via the tail vein. Animals were supplied with water and a commercial rodent diet ad libitum prior to and during the study.
Blood samples (˜100 μl at each time point) for plasma pharmacokinetic (PK) analysis were collected from the JVC cannula into lithium-heparin tubes at 2 min, 5 min, 15 min, 30 min, 45 min, 1 hr, 2 hr, 4 hr, 6 hr and 24 hr post-dose (Group A in Table 2). For compartmental PK analysis, blood and brain were collected from animals in Group B (Table 2) at 15 min, 1 hr, 2 hr, 4 hr, and 6 hr post-dose, with three rats assigned to each time point. Animals were deeply anesthetized with isoflurane and blood collected by cardiocentesis. Plasma separated by centrifugation at 6000 rpm×10 min. Brain hemispheres were subsequently harvested and snap frozen in liquid nitrogen. Plasma and brain samples were subsequently stored at −70° C.
Bioanalysis of the test inhibitor from plasma and brain extracts was performed according to standard procedures. Briefly, 20 μl of plasma was extracted with 100 μl of acetonitrile using a 96-well Solvinert filter plate (Millipore). Samples were subjected to LC/MS/MS analysis using an Eksigent Express LC 100 microflow HPLC system, coupled with an Eksigent CXP C-18AR 0.3*50 mm column, and a Thermo TSQuantum Classic triple quadrupole mass spectrometer running in positive ion, SRM mode. […]

[2] = Plasma pharmacokinetic analysis in rats, i.v. bolus; assay type: in vivo; conditions: male, Sprague-Dawley, rat
From the text: as §1
Whole blood from animals dosed with the test inhibitor was collected in lithium heparin anti-coagulant tubes. These samples were centrifuged to allow the subsequent collection of plasma, with plasma aliquots immediately stored at −70° C. For quantitative analysis, the samples were then thawed on ice and a 20 μl aliquot was added to a well of a multi-screen Solvinert filter plate (Millipore). A five-fold volume of acetonitrile was added to each sample to facilitate protein precipitation, the samples were multiply aspirated or shaken to mix and then centrifuged at 4500 rpm for 15 minutes to filter the samples, with the supernatant being collected in an underlying 96 well receiving plate. The receptor plate was then dried via speed vacuum at 40° C. The sample was reconstituted by multiple aspirations with a reconstitution buffer composed of 10% acetonitrile, 10% DMSO, 80% H2O with an internal standard added at a concentration of 100 ng/ml. Standards of the test inhibitor were prepared in 100% DMSO for the generation of a standard curve for sample quantification. The samples range from 1 to 100000 ng/ml, as required for the analysis. A 1 μl aliquot of standard was added per 10 μl of blank plasma to construct a calibration curve, 0.1 ng/ml to 10000 ng/ml, prior to the protein precipitation step again as required for analysis. Quality control samples were prepared identically, from an alternate standard source and a single sample was prepared with an identical volume spike added post precipitation and collection to monitor the extraction efficiency. This method was applicable to plasma from all species currently being tested. Solvinert filter wells were pre-washed with 100 μl of 10% MeOH/90% ACN followed by centrifugation at 4500 RPM for 10 min prior to use.
as §2
Male Sprague-Dawley Rats (200-400 g) were obtained from Taconic Farms (Hudson, N.Y.) with a pre-implanted jugular vein cannula (JVC) for blood sampling. […]

[3] = male, Sprague-Dawley, rat, in vivo, iv, 10 mg/kg

Cc1csc(CN(C)C(=O)c2cccc(C(=O)N[C@@H](Cc3ccccc3)[C@H](O)CNCc3cncc(C(C)(C)F)c3)c2)n1 [N1-((2S,3R)-4-((5-(2-fluoropropan-2-yl)pyridin-3-yl)methylam] [N1-((2S,3R)-4-((5-(2-fluoropropan-2-yl)pyridin-3-yl)methylamino)-3-hydroxy-1-phenylbutan-2-yl)-N3-methyl-N3-((4-methylthiazol-2-yl)methyl)isophthalamide]
Penetration (%), brain relative to plasma AUC24 hr [1, 3]: 47%

Cc1csc(CN(C)C(=O)c2cccc(C(=O)N[C@@H](Cc3ccccc3)[C@H](O)CNCc3cncc(C(C)(C)F)c3)c2)n1 [N1-((2S,3R)-4-((5-(2-fluoropropan-2-yl)pyridin-3-yl)methylamino)-3-hydroxy-1-phenylbutan-2-yl)-N3-methyl-N3-((4-methylthiazol-2-yl)methyl)isophthalamide]
Kp ([1]; male, Sprague-Dawley, rat, in vivo, iv, 10 mg/kg, Penetration (%), brain relative to plasma AUC24 hr): 0.468
AUC ([2]; plasma, rats, single 10 mg/kg intravenous dose, read-out: 24 hr plasma AUC): 2580 ng·h/mL

Cc1csc(CN(C)C(=O)c2cccc(C(=O)N[C@@H](Cc3ccccc3)[C@H](O)CNCc3cncc(C(C)(C)F)c3)c2)n1 [test inhibitor, N1-((2S,3R)-4-((5-(2-fluoropropan-2-yl)pyridin-3-yl)methylamino)-3-hydroxy-1-phenylbutan-2-yl)-N3-methyl-N3-((4-methylthiazol-2-yl)methyl)isophthalamide]
Brain Terminal phase t1/2 [1, 3]: 34.3 h
MRT last [1, 3]: 12 h
Penetration (%), brain relative to plasma AUC24 hr [1, 3]: 46.8%
concentration at 0.25 h [1, 3]: 160 ng/mL
concentration at 1 h [1, 3]: 71.1 ng/mL
concentration at 2 h [1, 3]: 72.4 ng/mL
concentration at 4 h [1, 3]: 28 ng/mL
concentration at 6 h [1, 3]: 42.7 ng/mL
concentration at 24 h [1, 3]: 52.5 ng/mL
half-life ([1]; male, Sprague-Dawley, rat, in vivo, iv, 10 mg/kg, Brain Terminal phase t1/2): 2040 min
AUC(0-t) ([1]; male, Sprague-Dawley, rat, in vivo, iv, rats, single dose i.v. 10 mg/kg, read-out: AUC24 hr, Brain): 1210 ng·h/mL
Brain AUC24 hr ([1]; rats, i.v. bolus 10 mg/kg): 1206.2 ng·h/mL
concentration at 0.25 h ([2]; in vivo, iv, 10 mg/kg): 2500 ng/mL
concentration at 1 h ([2]; in vivo, iv, 10 mg/kg): 548 ng/mL
concentration at 2 h ([2]; in vivo, iv, 10 mg/kg): 130 ng/mL
concentration at 4 h ([2]; in vivo, iv, 10 mg/kg): 31.1 ng/mL
concentration at 6 h ([2]; in vivo, iv, 10 mg/kg): 5.7 ng/mL
concentration at 24 h ([2]; in vivo, iv, 10 mg/kg): 2.2 ng/mL
half-life ([2]; plasma, iv, 10 mg/kg, rats, i.v. bolus 10 mg/kg, read-out: Plasma Terminal phase t1/2 (converted)): 786 min
half-life ([2]; plasma, iv, 10 mg/kg, rats, single 10 mg/kg intravenous dose, read-out: half-life in plasma): 360 to 780 min
AUC(0-t) ([2]; plasma, iv, rats, single dose i.v. 10 mg/kg, read-out: AUC24 hr, Plasma): 2580 ng·h/mL
